{
  "source": "ChEMBL document CHEMBL6182875",
  "about": "“Cinerols L-R, Anti-inflammatory Meroterpenoids from the Marine Sponge Dysidea cinerea” (J Nat Prod, 2025)",
  "key": {"RAW264.7 [1]": {"test_system": "RAW264.7", "test": "Cytotoxicity against mouse RAW264.7 cells assessed as effect on cell viability at 2.5 to 20 uM measured after 24 hrs by CCK8 assay", "format": "toxicity, cell-based", "details": "raw264.7, 24 h, dose 2.5-20 µM"}, "RAW264.7 [2]": {"test_system": "RAW264.7", "test": "Antiinflammatory activity against mouse RAW264.7 cells assessed as inhibition of LPS-induced TNF-alpha production pretreated for 2 hrs followed by LPS stimulation for 24 hrs by ELISA", "format": "functional, cell-based", "details": "dose 2.5-20 µM, time 26.0 hrs"}, "RAW264.7 [3]": {"test_system": "RAW264.7", "test": "Antiinflammatory activity against mouse RAW264.7 cells assessed as inhibition of LPS-induced IL-6 production pretreated for 2 hrs followed by LPS stimulation for 24 hrs by ELISA", "format": "functional, cell-based", "details": "dose 2.5-20 µM, time 26.0 hrs"}, "RAW264.7 [4]": {"test_system": "RAW264.7", "test": "Antiinflammatory activity against mouse RAW264.7 cells assessed as inhibition of LPS-induced PGE2 production pretreated for 2 hrs followed by LPS stimulation for 24 hrs by ELISA", "format": "functional, cell-based", "details": "dose 2.5-20 µM, time 26.0 hrs"}, "RAW264.7 [5]": {"test_system": "RAW264.7", "test": "Antiinflammatory activity against mouse RAW264.7 cells assessed as inhibition of LPS-induced NO production pretreated for 2 hrs followed by LPS stimulation for 24 hrs by ELISA", "format": "functional, cell-based", "details": "dose 2.5-20 µM, time 26.0 hrs"}, "RAW264.7 [6]": {"test_system": "RAW264.7", "test": "Inhibition of NF-kappaB signaling pathway in mouse RAW264.7 cells assessed as decrease in NF-kappaB p65 phosphorylation at Ser536 residue at 2.5 to 5 uM pretreated for 1 hr followed by LPS stimulation for 25 mins by western blot analysis", "format": "cell-based", "details": "dose 2.5-5 µM, time 85.0 min"}, "RAW264.7 [7]": {"test_system": "RAW264.7", "test": "Inhibition of NF-kappaB signaling pathway in mouse RAW264.7 cells assessed as decrease in IkappaBalpha phosphorylation at Ser32 residue at 2.5 to 5 uM pretreated for 1 hr followed by LPS stimulation for 25 mins by western blot analysis", "format": "cell-based", "details": "dose 2.5-5 µM, time 85.0 min"}, "RAW264.7 [8]": {"test_system": "RAW264.7", "test": "Antiinflammatory activity against mouse RAW264.7 cells assessed as inhibition of LPS-induced COX-2 protein expression at 2.5 to 5 uM pretreated for 1 hr followed by LPS stimulation for 25 mins by western blot analysis", "format": "functional, cell-based", "details": "dose 2.5-5 µM, time 85.0 min"}, "RAW264.7 [9]": {"test_system": "RAW264.7", "test": "Inhibition of MAPK signaling pathway in mouse RAW264.7 cells assessed as decrease in ERK1/2 phosphorylation at 2.5 to 5 uM pretreated for 1 hr followed by LPS stimulation for 25 mins by western blot analysis", "format": "cell-based", "details": "dose 2.5-5 µM, time 85.0 min"}, "RAW264.7 [10]": {"test_system": "RAW264.7", "test": "Inhibition of MAPK signaling pathway in mouse RAW264.7 cells assessed as decrease in p38 phosphorylation at 2.5 to 5 uM pretreated for 1 hr followed by LPS stimulation for 25 mins by western blot analysis", "format": "cell-based", "details": "dose 2.5-5 µM, time 85.0 min"}, "RAW264.7 [11]": {"test_system": "RAW264.7", "test": "Inhibition of MAPK signaling pathway in mouse RAW264.7 cells assessed as decrease in JNK phosphorylation at 2.5 to 5 uM pretreated for 1 hr followed by LPS stimulation for 25 mins by western blot analysis", "format": "cell-based", "details": "dose 2.5-5 µM, time 85.0 min"}},
  "note": "Calls of active or inactive are those of the source. No cut-off for these calls is given here.",
  "data": [
    {"smiles": "C=C1CCC[C@H]2[C@](C)(Cc3cc(O)cc(C(C)=O)c3O)[C@@H](C)CC[C@]12C", "values": [
      {"measurement": "Activity", "setting": "RAW264.7 [1]", "result": "Non-toxic"},
      {"measurement": "Activity", "setting": "RAW264.7 [2]", "result": "Dose-dependent-effect"},
      {"measurement": "Activity", "setting": "RAW264.7 [3]", "result": "Dose-dependent-effect"},
      {"measurement": "Activity", "setting": "RAW264.7 [4]", "result": "Dose-dependent-effect"},
      {"measurement": "Activity", "setting": "RAW264.7 [5]", "result": "Dose-dependent-effect"},
      {"measurement": "inhibition", "setting": "RAW264.7 [6]", "result": "Active"},
      {"measurement": "inhibition", "setting": "RAW264.7 [7]", "result": "Active"},
      {"measurement": "Activity", "setting": "RAW264.7 [8]", "result": "Active"},
      {"measurement": "inhibition", "setting": "RAW264.7 [9]", "result": "Active"},
      {"measurement": "inhibition", "setting": "RAW264.7 [10]", "result": "Active"},
      {"measurement": "inhibition", "setting": "RAW264.7 [11]", "result": "Active"}
    ]},
    {"smiles": "CC1=CCC[C@H]2[C@](C)(Cc3cc4c(cc3O)[n+](CCS(=O)(=O)[O-])c3n4CCC3)[C@@H](C)CC[C@]12C", "values": [
      {"measurement": "Activity", "setting": "RAW264.7 [1]", "result": "Non-toxic"}
    ]},
    {"smiles": "CC1=CCC[C@H]2[C@](C)(CC3=CC(=O)C=C(NCCO)C3=O)[C@@H](C)CC[C@]12C", "values": [
      {"measurement": "Activity", "setting": "RAW264.7 [1]", "result": "Non-toxic"}
    ]},
    {"smiles": "CC(=O)c1cc(O)cc(C[C@]2(C)[C@@H](C)CC[C@]3(C)C(C)=CCC[C@@H]23)c1O", "values": [
      {"measurement": "Activity", "setting": "RAW264.7 [1]", "result": "Non-toxic"}
    ]},
    {"smiles": "CC1=CCC[C@H]2[C@](C)(CC3=CC(=O)C=C(N(C)CCO)C3=O)[C@@H](C)CC[C@]12C", "values": [
      {"measurement": "Activity", "setting": "RAW264.7 [1]", "result": "Non-toxic"}
    ]},
    {"smiles": "C[C@H]1CC[C@@]2(C)[C@@H](CC[C@@H](O)[C@@]2(C)O)[C@]1(C)Cc1cc(O)cc2nc3n(c12)CCC3", "values": [
      {"measurement": "Activity", "setting": "RAW264.7 [1]", "result": "Non-toxic"}
    ]},
    {"smiles": "CC1=CCC[C@H]2[C@](C)(CC3=CC(=O)C(NCCO)=CC3=O)[C@@H](C)CC[C@]12C", "values": [
      {"measurement": "Activity", "setting": "RAW264.7 [1]", "result": "Non-toxic"}
    ]}
  ]
}
